Results: publication PMC11431137, “[^68Ga]Ga-DOTAGA-Glu(FAPi)2 Shows Enhanced Tumor Uptake and Theranostic Potential in Preclinical PET Imaging” (Diagnostics, 2024)
Several values for one entry are separate records, joined by “and”; a condition that tells them apart may be missing. Identical values can stand only once. Each block holds one compound with its values, some of them ahead of it.

Assays:
FAP = tested on: FAP; parameters: method as in PMID 36980775; conditions: cited from earlier work
FAP over PREP and DPP = tested on: FAP over PREP and DPP; parameters: method as in PMID 38999044; conditions: compared with DOTAGA.(SA.FAPi)2; cited from earlier work
[1] = Stability of radiochemical purity (RCP) post-formulation by radio-HPLC; assay type: physicochemical; conditions: formulated in phosphate buffer (0.1 M, pH 7) with ethanol
Description: Gallium-68 chloride was obtained by eluting the ^68Ge/^68Ga generator (Galliapharm, Eckert & Ziegler, Berlin, Germany) with 0.1 M HCl. Ammonium acetate buffer (0.1 M, pH 5.5), and a DOTAGA-Glu(FAPi)2 stock solution (2 mg/mL) for labeling was prepared using water for ultratrace analysis (Merck, Darmstadt, Germany). [^68Ga]GaCl3 solution in 0.1 M HCl (500 µL, ca. 200 MBq ^68Ga) was mixed with ammonium acetate buffer (80 µL) and DOTAGA-Glu-(FAPi)2 stock solution (4 µL). The resulting mixture was placed on an agitating mixer and shaken at 600 rpm for 5 min at 60 °C. Afterward, the reaction mixture was diluted with 5 mL water and passed through a Strata-X 33 µm polymeric reversed-phase cartridge (Phenomenex, Torrance, CA, USA). The cartridge was rinsed with more water (0.3 mL) and eluted with absolute ethanol (0.5 mL). Ethanol was evaporated under nitrogen flow and gentle heating to 40 °C. The residue was resolubilized in an aliquot of fresh ethanol (20 µL) and further diluted with phosphate buffer (0.1 M, pH 7) to a total volume of 2 mL.
Radiochemical conversion (RCC) for the ^68Ga-labeling process and radiochemical purity (RCP) of the formulated [^68Ga]Ga-DOTAGA-Glu(FAPi)2 were assessed by radio-HPLC.

[2] = logD7.4, shake flask method with n-octanol and phosphate-buffered saline (pH 7.4); assay type: physicochemical; conditions: n-octanol / PBS pH 7.4, shake flask
Source text: The kinetic profile of [^68Ga]Ga-DOTAGA-Glu-(FAPi)2 is explained considering its low lipophilicity, estimated by measuring the logD7.4 value using the shake flask method with n-octanol and phosphate-buffered saline (pH 7.4). The logD7.4 of −2.5 ± 0.05 indicates good hydrophilicity, leading to renal excretion over biliary excretion. […] Moreover, the compound is more hydrophilic than the first-generation dimer [^68Ga]Ga-DOTAGA.(SA.FAPi)2 (−2.0 ± 0.1) ([25]), resulting in lower background uptake and higher tumor-to-background image contrast.

[3] = tested on: endogenously FAP-expressing xenografted mouse model, U87MG; assay: In vivo PET/CT imaging, organ distribution in U87MG xenografted mice
Source text: Six-week-old female NMRI nude mice were purchased (Janvier, Le Genest-Saint-Isle, France) and housed in groups of 4–8 mice in individually ventilated cages under regular lighting conditions. They were fed a standard pathogen-free pellet diet and provided water ad libitum. All animal experiments were approved by The Animal Experiments Inspectorate in Denmark (2021-15-0201-01041). The animals were acclimatized for two weeks before study initiation.
To establish a tumor model, the mice were subcutaneously inoculated on the right flank with a human xenograft glioblastoma U87MG (HTB-14, ATCC, Manassas, VA, USA). These cells were cultivated in Dulbecco’s modified Eagle’s medium (DMEM) supplemented with fetal bovine serum (FBS) and penicillin–streptomycin (Pen/Strep). Tumor growth was monitored two times weekly using calipers.
After adequate tumor establishment, the animals were injected intravenously in the tail vein with 4.49 ± 0.04 MBq [^68Ga]Ga-DOTAGA-Glu(FAPi)2 in a 100 μL phosphate buffer (0.1 M, pH 7) with 1% ethanol (v/v). PET/CT imaging (Inveon, Siemens Healthineers, Knoxville, TN, USA) was performed immediately after injection, and PET data were acquired for 3000 s. The imaging protocol included a dynamic framing setup, with five consecutive frames of 600 s each, resulting in average time intervals of 0–10, 10–20, 20–30, 30–40, and 40–50 min post-injection. During imaging, body temperature was maintained using a heated platform.
PET images were reconstructed using the 3D-OSEM/SP-MAP algorithm, and attenuation correction was performed using the co-registered CT images. The activity concentration was decay-corrected to the time of injection and quantified using Inveon Research Workplace (IRW). Regions of interest were manually drawn on CT images to delineate organs and derive volume and activity. Subsequently, the percentage of injected dose per gram (% ID/g) was calculated for tumor, blood, liver, kidney, and muscle tissues for each frame.
All graphical representations of the data were generated using Prism version 10.1.0 (1994–2023, GraphPad Software, LLC, Boston, MA, USA). The results were expressed as the mean ± standard error of the mean (SEM).

[4] = 5 min post-injection, Mean±SEM, n = 4 mice
[5] = 5 min post-injection, individual mice M1-M4
[6] = 15 min post-injection, Mean±SEM, n = 4 mice
[7] = 15 min post-injection, individual mice M1-M4
[8] = 25 min post-injection, Mean±SEM, n = 4 mice
[9] = 25 min post-injection, individual mice M1-M4
[10] = 35 min post-injection, Mean±SEM, n = 4 mice
[11] = 35 min post-injection, individual mice M1-M4
[12] = 45 min post-injection, Mean±SEM, n = 4 mice, listed as [68Ga]Ga-DOTAGA-Glu-(FAPi)2
[13] = 45 min post-injection, Mean±SEM, n = 4 mice, listed as [^68Ga]Ga-DOTAGA-Glu-(FAPi)2
[14] = 45 min post-injection, individual mice M1-M4

Structure (SMILES): N#C[C@@H]1CC(F)(F)CN1C(=O)CNC(=O)c1ccnc2ccc(OCCCCNC(=O)CC[C@H](NC(=O)CCC(C(=O)O)N3CCN(CC(=O)O)CCN(CC(=O)O)CCN(CC(=O)O)CC3)C(=O)NCCCCOc3ccc4nccc(C(=O)NCC(=O)N5CC(F)(F)C[C@H]5C#N)c4c3)cc12 (stereo partly drawn) [DOTAGA-Glu(FAPi)2, 2,2′,2″-(10-(4-(((S)-1,5-bis((4-((4-((2-((S)-2-Cyano-4,4-difluoropyrrolidin-1-yl)-2-oxoethyl)carbamoyl)quinolin-6-yl)oxy)butyl)amino)-1,5-dioxopentan-2-yl)amino)-1-carboxy-4-oxobutyl)-1,4,7,10-tetraazacyclododecane-1,4,7-triyl)triacetic acid]
- IC50 (FAP): 0.26 ± 0.04 nM
- selectivity for FAP over PREP and DPP (FAP over PREP and DPP): higher selectivity than DOTAGA.(SA.FAPi)2

- RCP stable post-formulation [1]: at least 1 h
- logD7.4 [2]: −2.5 ± 0.05
- Organ distribution, bladder [3, 4]: 3.96±0.42 %ID/g
- Organ distribution, kidney [3, 4]: 6.68±0.48 %ID/g
- Organ distribution, liver [3, 4]: 5.83±0.58 %ID/g
- Organ distribution, tumor [3, 4]: 2.55±0.38 %ID/g
- Tumor-to-blood ratio (TBR) [3, 4]: 0.46±0.05
- Tumor-to-kidney ratio (TKR) [3, 4]: 0.38±0.03
- Tumor-to-liver ratio (TLR) [3, 4]: 0.43±0.03
- Tumor-to-muscle ratio (TMR) [3, 4]: 3.66±0.13
- Organ distribution, blood [3, 5]: 5.98 %ID/g
- Organ distribution, tumor [3, 5]: 3.52 %ID/g and 2.54 %ID/g and 1.66 %ID/g
- Tumor-to-blood ratio (TBR) [3, 5]: 0.59 and 0.42 and 0.37 and 0.44
- Tumor-to-kidney ratio (TKR) [3, 5]: 0.47 and 0.35 and 0.38 and 0.31
- Tumor-to-liver ratio (TLR) [3, 5]: 0.51 and 0.41 (2×) and 0.40
- Tumor-to-muscle ratio (TMR) [3, 5]: 3.52 and 3.35 and 3.91 and 3.86
- Organ distribution, bladder [3, 6]: 25±2.12 %ID/g
- Organ distribution, kidney [3, 6]: 7.08±0.56 %ID/g
- Organ distribution, liver [3, 6]: 4.02±0.15 %ID/g
- Organ distribution, tumor [3, 6]: 4.28±0.37 %ID/g
- Tumor-to-blood ratio (TBR) [3, 6]: 0.92±0.10
- Tumor-to-kidney ratio (TKR) [3, 6]: 0.61±0.05
- Tumor-to-liver ratio (TLR) [3, 6]: 1.06±0.07
- Tumor-to-muscle ratio (TMR) [3, 6]: 3.68±0.32
- Organ distribution, blood [3, 7]: 4.04 %ID/g
- Organ distribution, tumor [3, 7]: 5.16 %ID/g and 3.44 %ID/g and 4.56 %ID/g
- Tumor-to-blood ratio (TBR) [3, 7]: 1.04 and 0.69 and 1.13 and 0.84
- Tumor-to-kidney ratio (TKR) [3, 7]: 0.75 and 0.60 and 0.59 and 0.49
- Tumor-to-liver ratio (TLR) [3, 7]: 1.20 and 1.00 and 1.16 and 0.88
- Tumor-to-muscle ratio (TMR) [3, 7]: 3.40 and 3.28 and 4.65 and 3.37
- Organ distribution, bladder [3, 8]: 42.54±5.06 %ID/g
- Organ distribution, kidney [3, 8]: 4.02±0.60 %ID/g
- Organ distribution, liver [3, 8]: 3.21±0.11 %ID/g
- Organ distribution, tumor [3, 8]: 4.49±0.45 %ID/g
- Tumor-to-blood ratio (TBR) [3, 8]: 1.12±0.15
- Tumor-to-kidney ratio (TKR) [3, 8]: 1.14±0.07
- Tumor-to-liver ratio (TLR) [3, 8]: 1.40±0.12
- Tumor-to-muscle ratio (TMR) [3, 8]: 3.71±0.40
- Organ distribution, blood [3, 9]: 3.66 %ID/g
- Organ distribution, tumor [3, 9]: 5.65 %ID/g and 3.51 %ID/g and 4.60 %ID/g
- Tumor-to-blood ratio (TBR) [3, 9]: 1.46 and 0.76 and 1.26 and 1.01
- Tumor-to-kidney ratio (TKR) [3, 9]: 1.33 and 1.11 and 0.98 and 1.14
- Tumor-to-liver ratio (TLR) [3, 9]: 1.56 and 1.31 and 1.62 and 1.10
- Tumor-to-muscle ratio (TMR) [3, 9]: 3.57 and 3.36 and 4.87 and 3.03
- Organ distribution, bladder [3, 10]: 50.28±7.13 %ID/g
- Organ distribution, kidney [3, 10]: 2.78±0.44 %ID/g
- Organ distribution, liver [3, 10]: 2.88±0.08 %ID/g
- Organ distribution, tumor [3, 10]: 4.62±0.51 %ID/g
- Tumor-to-blood ratio (TBR) [3, 10]: 1.29±0.21
- Tumor-to-kidney ratio (TKR) [3, 10]: 1.70±0.10
- Tumor-to-liver ratio (TLR) [3, 10]: 1.60±0.16
- Tumor-to-muscle ratio (TMR) [3, 10]: 3.74±0.37
- Organ distribution, blood [3, 11]: 3.44 %ID/g
- Organ distribution, tumor [3, 11]: 5.95 %ID/g and 3.52 %ID/g and 4.68 %ID/g
- Tumor-to-blood ratio (TBR) [3, 11]: 1.85 and 0.85 and 1.36 and 1.11
- Tumor-to-kidney ratio (TKR) [3, 11]: 1.96 and 1.64 and 1.47 and 1.71
- Tumor-to-liver ratio (TLR) [3, 11]: 1.75 and 1.48 and 1.94 and 1.24
- Tumor-to-muscle ratio (TMR) [3, 11]: 3.66 and 3.17 and 4.80 and 3.32
- Organ distribution, bladder ([3]; 45 min post-injection, Mean±SEM, n = 4 mice): 53.81±7.59 %ID/g
- Organ distribution, kidney [3, 12]: 2.16±0.21 %ID/g
- Organ distribution, liver [3, 12]: 2.73±0.09 %ID/g
- Organ distribution, tumor [3, 12]: 4.65±0.52 %ID/g
- Tumor-to-blood ratio (TBR) [3, 12]: 1.38±0.25
- Tumor-to-kidney ratio (TKR) [3, 12]: 2.15±0.08
- Tumor-to-liver ratio (TLR) [3, 12]: 1.71±0.17
- Tumor-to-muscle ratio (TMR) [3, 12]: 3.88±0.41
- Tumor-to-blood ratio (TBR) [3, 13]: 1.4 ± 0.3
- Tumor-to-liver ratio (TLR) [3, 13]: 1.7 ± 0.2
- Tumor-to-muscle ratio (TMR) [3, 13]: 3.9 ± 0.4
- Tumor-to-blood ratio (TBR) [3, 14]: 1.19 and 2.06 and 0.88 and 1.38
- Tumor-to-kidney ratio (TKR) [3, 14]: 2.35 and 2.03 and 2.20 and 2.02
- Tumor-to-liver ratio (TLR) [3, 14]: 1.89 and 1.58 and 2.07 and 1.28
- Tumor-to-muscle ratio (TMR) [3, 14]: 3.52 and 3.41 and 5.09 and 3.49
- clearance route ([3]; PET/CT, U87MG tumor-bearing mice): cleared mainly by the kidneys
Structure (SMILES): N#C[C@@H]1CC(F)(F)CN1C(=O)CNC(=O)c1ccnc2ccc(OCCCCNC(=O)CC[C@H](NC(=O)CCC(C(=O)O)N3CCN(CC(=O)[O-])CCN(CC(=O)[O-])CCN(CC(=O)[O-])CC3)C(=O)NCCCCOc3ccc4nccc(C(=O)NCC(=O)N5CC(F)(F)C[C@H]5C#N)c4c3)cc12.[68Ga+3] (some centres unmarked) [[^68Ga]Ga-DOTAGA-Glu(FAPi)2]
- Organ distribution, bladder [3, 5]: 4.80 %ID/g and 4.51 %ID/g and 3.00 %ID/g and 3.51 %ID/g
- Organ distribution, kidney [3, 5]: 7.50 %ID/g and 7.11 %ID/g and 6.77 %ID/g and 5.32 %ID/g
- Organ distribution, liver [3, 5]: 6.93 %ID/g and 6.06 %ID/g and 6.15 %ID/g and 4.19 %ID/g
- Organ distribution, bladder [3, 7]: 20.10 %ID/g and 25.42 %ID/g and 30.39 %ID/g and 24.10 %ID/g
- Organ distribution, kidney [3, 7]: 6.09 %ID/g and 6.56 %ID/g and 8.67 %ID/g and 7.01 %ID/g
- Organ distribution, liver [3, 7]: 3.79 %ID/g and 3.93 %ID/g and 4.45 %ID/g and 3.92 %ID/g
- Organ distribution, bladder [3, 9]: 31.21 %ID/g and 41.63 %ID/g and 55.86 %ID/g and 41.46 %ID/g
- Organ distribution, kidney [3, 9]: 3.47 %ID/g and 3.78 %ID/g and 5.77 %ID/g and 3.07 %ID/g
- Organ distribution, liver [3, 9]: 2.94 %ID/g and 3.20 %ID/g and 3.49 %ID/g and 3.19 %ID/g
- Organ distribution, bladder [3, 11]: 35.81 %ID/g and 47.82 %ID/g and 69.95 %ID/g and 47.53 %ID/g
- Organ distribution, kidney [3, 11]: 2.39 %ID/g and 2.64 %ID/g and 4.04 %ID/g and 2.06 %ID/g
- Organ distribution, liver [3, 11]: 2.67 %ID/g and 2.93 %ID/g and 3.06 %ID/g and 2.85 %ID/g
- Organ distribution, bladder [3, 14]: 39.77 %ID/g and 49.32 %ID/g and 75.38 %ID/g and 50.79 %ID/g
- Organ distribution, kidney [3, 14]: 1.99 %ID/g and 2.17 %ID/g and 2.73 %ID/g and 1.74 %ID/g
- Organ distribution, liver [3, 14]: 2.47 %ID/g and 2.78 %ID/g and 2.91 %ID/g and 2.75 %ID/g
- Organ distribution, tumor [3, 14]: 4.40 %ID/g and 6.01 %ID/g and 3.52 %ID/g and 4.68 %ID/g
